“Also recorded” adds a separate entry of the source.
Columns and labels:
MCF-7 cells = assay: Imaging of treated cells by light microscopy, MCF-7; type: cell-based, Human; settings: 200 or 400 μg/mL, 48 h, light microscope
Method: (§1) The cells were observed under the light microscope after each time point to evaluate the morphological changes and study the NPs effect on cell proliferation without fixation. The images were taken by light microscope (TS100F Eclipse, Nikon, Tokyo, Japan) that can work with a digital camera and combined with its Nikon microscope program.
(§2) The effect of nanocomposites on cell morphology was imaged by using a light microscope after each time point. MCF-7 cells and HFF-1 cells were treated with either 200 or 400 μg/mL for 48 h to evaluate the average morphological changes. […] In the microscopy images, the magnification was ×100 and the scale bar represents 100 μm.

[1] = system: HFF-1 (Human Foreskin Fibroblasts) cells; assay: Cytotoxicity assay by MTT, HFF-1 cells; type: cell-based
Method: (§3) MCF-7 (Human Breast Cancer) and HFF-1 (Human Foreskin Fibroblasts) cell lines were sub-cultured in DMEM (Dullbecco's Modified Eagle Medium) supplemented with 1% of L-Glutamine, 10% of Fetal Bovine Serum as FBS (Gibco), 1% of Non-Essential Amino Acid (Gibco), and 1% of penicillin and streptomycin. The cells were cultured in a humidified CO2 incubator at 37° C. (Thermoscientific, Waltham, MA). The cells were seeded for in a 96 well plate (Thermo Fisher, Waltham, USA) with 10,000 cells per well. […] The cells were tested after 24, 48 and 72 hours using (Thiazolyl Blue Tetrazolium Bromide, MOLEQULE-ON) MTT assay.
(§4) Cultured media along with NPs were removed from 96 well plates and the cells were washed with 1×PBS.
(§5) The statistical analysis was done for determining the MTT cytotoxicity assay, using an unpaired two-way ANOVA (GraphPad Prism software), P-value is set at <0.05 (* if P≤0.05, ** if P≤0.01, *** if P≤0.001, **** if P≤0.0001) were considered statistically significant. The results were calculated from different three experiments.

[2] = system: MCF-7 (Human Breast Cancer) cells; assay: Cytotoxicity assay by MTT, MCF-7 cells; type: cell-based
Method: as §3, §4, §5
The cytotoxicity study was performed to evaluate the toxicity of CeO2 nanoparticles against breast cancer cell line (MCF-7) and a non-cancerous cell line of human foreskin fibroblast (HFF-1). Different concentrations were applied (see Table 1) for 24, 48 and 72 hours, then, cytotoxicity was measured by MTT assay after each period of treatment. The data were plotted in scattered graphs using excel to calculate the EC50 values from the exponential trendline generated equation. The statistical significance with the p value and standard deviation were analyzed by two-way ANOVA test in GraphPad, Prism software. […] In addition, EC50 values were calculated to estimate the half maximal cytotoxic effect after each time point.

HFF-1 cells = assay: Imaging of treated cells by light microscopy, HFF-1; type: cell-based, Human; settings: 200 or 400 μg/mL, 48 h, light microscope
Method: as §1, §2

SMILES	effect on cell morphology and proliferation, MCF-7 (MCF-7 cells)	EC50 Value of treated HFF-1 cells, 24 h ([1]; HFF-1, MTT, 24 h treatment) [µg/mL]	EC50 Value of treated HFF-1 cells, 48 h ([1]; HFF-1, MTT, 48 h treatment) [µg/mL]	EC50 Value of treated HFF-1 cells, 72 h ([1]; HFF-1, MTT, 72 h treatment) [µg/mL]	EC50 Value of treated MCF-7 cells, 24 h ([2]; MCF-7, MTT, 24 h treatment) [µg/mL]	EC50 Value of treated MCF-7 cells, 48 h ([2]; MCF-7, MTT, 48 h treatment) [µg/mL]	EC50 Value of treated MCF-7 cells, 72 h ([2]; MCF-7, MTT, 72 h treatment) [µg/mL]	effect on cell morphology and proliferation, HFF-1 (HFF-1 cells)	cytotoxic efficacy against HFF-1 cells (in words) ([1]; MTT, 24-72 h)	cytotoxic efficacy against MCF-7 cells (in words) ([2]; MTT, 24-72 h)
N.N.[Cl][Pt][Cl] [cisplatin]	cell death morphological structures	52.3	12.62	6.58	21.58	8.03	3.12	cell death morphological structures	–	–
COc1cc(/C=C/C(=O)CC(=O)/C=C/c2ccc(O)c(OC)c2)ccc1O [curcumin]	slightly affected	–	–	–	–	–	–	slightly affected	less efficacy	lowest efficacy with high cell viability percentages; also recorded: rapidly enhanced the cell growth

— patent publication US12144823B2, “Porous silicate and/or aluminosilicate matrix/cerium oxide nanoparticle nanocarrier for combination anti-cancer therapeutic and antioxidant delivery” (Imam Abdulrahman Bin Faisal University, priority 2022, dated 2024)
